“Also recorded” adds a separate entry of the source.
How the values were obtained:
Wistar Ratte = experiment: Mechanical allodynia (von Frey filament) after chronic constriction injury (CCI) of the left sciatic nerve, rat; assay type: in vivo; details: rats, day 10-12 after CCI
Experimental: (§1) Zum Beweis der Effektivität der Bitopertin-Applikation zur Behandlung neuropathischer Schmerzen wurde eine operative Ligatur des linken N. ischiadicus (Chronic Constriction Injury; CCI) der Wistar Ratte sowie C57BL/6-Maus induziert. Am Tag 10-12 nach CCI erhielten 2 Gruppen der Ratten randomisiert und verblindet eine einmalige orale Dosierungen von Bitopertin (0,3; 1 mg/kg), während die Kontrollgruppen Vehikel erhielten. Mechanische Allodynie wurde mittels eines halbautomatischen Frey Filaments (Ugo Basile) vor und 10-12 Tage nach CCI, sowie 1, 2, 4, 8 und 24 h nach Applikation von Bitopertin bzw. Vehikel überprüft. Zusätzlich wurde die Wirkung von Bitopertin 10 Tage nach CCI in Mäusen bei kontinuierlicher Langzeitapplikation mittels subkutan implantierter, osmotischer Mini-Infusionspumpen (2 mg/kg/Tag) über 27 Tage untersucht. Neuromotorische Wirkungen von Bitopertin in Mäusen wurden im Open-Field-Test 1 h nach Injektion bzw. bei kontinuierlicher Applikation nach 12 Tagen analysiert. Statistik: Alle Daten sind dargestellt als Mittelwerte ± Standardfehler; ANOVA und Bonferroni post hoc Test; Signifikanzniveau p<0,05.
In Figur 3 ist der Effekt des GlyT1-Inhibitors Bitopertin auf die mechanische Allodynie bei Nagern mit Neuropathie nach CCI dargestellt. Abbildung (A) zeigt den Effekt des GlyT1-Inhibitors Bitopertin auf die einmalige orale Applikation bei Ratten 0,3 mg/kg; n=9-11. […]

C57BL/6-Maus = experiment: Mechanical allodynia (von Frey filament, withdrawal threshold) after chronic constriction injury (CCI), mouse; assay type: in vivo
Mäusen = details: in vivo
Experimental: as §1

Aktivität (Open-field Test) (Mäusen; 2 mg/kg): keine Veränderungen der Aktivität
SMILES: C[C@H](Oc1ccc(S(C)(=O)=O)cc1C(=O)N1CCN(c2ncc(C(F)(F)F)cc2F)CC1)C(F)(F)F [Bitopertin]
durch CCI induzierte mechanische Allodynie (Wistar Ratte; single oral dose 0,3 mg/kg, effect two and four hours after administration, Figur 3 A): Reduktion der durch CCI induzierten mechanischen Allodynie; also recorded: signifikanten Verminderung von mechanischer Allodynie
durch CCI induzierte mechanische Allodynie (Wistar Ratte; single oral dose 1 mg/kg, compared with 0,3 mg/kg, Figur 3 B): vergleichbar ausprägten Effekten; also recorded: signifikanten Verminderung von mechanischer Allodynie
Schmerzempfindlichkeit der neuropathischen Extremität (mechanische Allodynie) (C57BL/6-Maus; mice after CCI, continuous subcutaneous administration 2 mg/kg/Tag by osmotic mini-pump over 27 days, effect from 7 days after start until end of therapy, Figur 3 C, 2 mg/kg): verminderten Schmerzempfindlichkeit der neuropathischen Extremität; also recorded: signifikanten Verminderung von mechanischer Allodynie
Rückzugsschwellenwerte in Antwort auf eine mechanische Stimulation der neuropathischen Extremität (C57BL/6-Maus; mice, intraperitoneal 2 mg/kg versus Kochsalzlösung 0,9%, Figur 1): deutliche Anhebung der gemessenen Rückzugsschwellenwerte
unerwünschte neuromotorische Wirkungen (Mäusen): nicht zu unerwünschten neuromotorischen Wirkungen
Wegstrecken und Aufenthaltsdauern (Open-Field-Test) (Mäusen; sc, 2 mg/kg): keine Unterschiede in Wegstrecken und Aufenthaltsdauern

From patent EP3199156A1, “USE OF GLYCINE TRANSPORTER 1 ANTAGONISTS AS CENTRAL NERVOUS ANALGESICS” (Heinrich Heine Universität Düsseldorf, priority 2016, dated 2017)
